22 compounds from patent publication US9365522B2, “Pyrazole amide derivative” (AMGEN INC., priority 2015, dated 2016) can be followed below.

The structures appear in SMILES notation.

In the test the target is T1, ligand binding domain of human ROR gamma (Homo sapiens, UniProt P51449).
T1 construct: NM_001001523; expressed in transfected cells; host or cells: HEK293T
T1 sequence (P51449 247-497 isoform P51449-2): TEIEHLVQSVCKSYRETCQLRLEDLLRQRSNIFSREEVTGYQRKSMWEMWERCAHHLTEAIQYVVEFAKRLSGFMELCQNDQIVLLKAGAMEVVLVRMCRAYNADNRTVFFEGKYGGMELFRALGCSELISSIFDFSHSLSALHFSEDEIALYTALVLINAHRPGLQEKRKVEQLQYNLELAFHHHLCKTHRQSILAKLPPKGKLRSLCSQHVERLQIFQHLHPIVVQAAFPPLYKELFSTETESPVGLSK
In words: ROR gamma reporter gene assay (GAL4-RORγ LBD luciferase, Dual-Glo). Conditions: HEK293T cells transfected with pM-ROR gamma, 8 concentrations 3.5 nM to 10.5 μM, 24 h incubation; read-out: result (pIC50, inhibition of RORγ transcriptional activity) (converted). Format: cell-based. In short, it runs like this:
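HEK293T cells co-transfected with GAL4-DBD fused to human RORγ LBD (aa 247-497), 5×UAS firefly luciferase reporter and CMV-renilla, in charcoal-stripped serum.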

`C[C@]1(C(=O)O)CC[C@H](n2ncc(C(=O)N(CC(=O)c3c(Cl)cncc3Cl)Cc3ccc(F)cc3)c2C(F)(F)F)CC1` [Example 77, trans-4-(4-((2-(3,5-dichloropyridin-4-yl)-2-oxoethyl)(4-fluorobenzyl)carbamoyl)-5-(trifluoromethyl)-1H-pyrazol-1-yl)-1-methylcylohexanecarboxylic acid]: the IC50 was 33900 pM. On to `C[C@]1(C(=O)O)CC[C@H](n2ncc(C(=O)N(CC(=O)c3c(Cl)cncc3Cl)Cc3cc(F)cc(F)c3)c2C(F)(F)F)CC1` [Example 78, trans-4-(4-((2-(3,5-dichloropyridin-4-yl)-2-oxoethyl)(3,5-difluorobenzyl)carbamoyl)-5-(trifluoromethyl)-1H-pyrazol-1-yl)-1-methylcyclohexanecarboxylic acid], for which the IC50 was 10000 pM. `C[C@]1(C(=O)O)CC[C@@H](n2ncc(C(=O)N(CC(=O)c3c(Cl)cncc3Cl)Cc3ccc(F)cc3)c2C(F)(F)F)CC1` [Example 79, trans-4-(4-((2-(3,5-dichloropyridin-4-yl)-2-oxoethyl)(4-fluorobenzyl)carbamoyl)-5-(trifluoromethyl)-1H-pyrazol-1-yl)-1-methylcyclohexanecarboxylic acid]: the IC50 is 209000 pM.

For `O=C(CN(Cc1ccc(F)cc1)C(=O)c1cnn([C@H]2CC[C@@](F)(C(=O)O)CC2)c1C(F)(F)F)c1c(Cl)cncc1Cl` [Example 80, trans-4-(4-((2-(3,5-dichloropyridin-4-yl)-2-oxoethyl)(4-fluorobenzyl)carbamoyl)-5-(trifluoromethyl)-1H-pyrazol-1-yl)-1-fluorocyclohexanecarboxylic acid], the IC50 is 661000 pM.

Turning to `O=C(CN(Cc1ccc(F)cc1)C(=O)c1cnn([C@H]2CC[C@](F)(C(=O)O)CC2)c1C(F)(F)F)c1c(Cl)cncc1Cl` [Example 81, cis-4-(4-((2-(3,5-dichloropyridin-4-yl)-2-oxoethyl)(4-fluorobenzyl)carbamoyl)-5-(trifluoromethyl)-1H-pyrazol-1-yl)-1-fluorocyclohexanecarboxylic acid], the IC50 is 93300 pM. For the compound `O=C(CN(Cc1ccc(F)cc1)C(=O)c1cnn([C@H]2C[C@H](C(=O)O)C2)c1C(F)(F)F)c1c(Cl)cncc1Cl` [Example 82, trans-3-(4-((2-(3,5-dichloropyridin-4-yl)-2-oxoethyl)(4-fluorobenzyl)carbarnoyl)-5-(trifluoromethyl)-1H-pyrazol-1-yl)cyclobutanecarboxylic acid], the IC50 is 81300 pM.

Turning to `CC(F)(F)c1c(C(=O)N(CC(=O)c2c(Cl)cncc2Cl)Cc2ccc(F)cc2)cnn1[C@H]1CC[C@H](C(=O)O)CC1` [Example 84, trans-4-(4-((2-(3,5-dichloropyridin-4-yl)-2-oxoethyl)(4-fluorobenzyl)carbamoyl)-5-(1,1-difluoroethyl)-1H-pyrazol-1-yl)cyclohexanecarboxylic acid], the IC50 was 107000 pM. Take `O=C(CN(Cc1cc(F)cc(F)c1)C(=O)c1cnn([C@H]2CC[C@H](O)CC2)c1C(F)(F)F)c1c(Cl)cncc1Cl` [Example 85, N-(2-(3,5-dichloropyridin-4-yl)-2-oxoethyl)-N-(3,5-difluorobenzyl)-1-(trans-4-hydroxycyclohexyl)-5-(trifluoromethyl)-1H-pyrazole-4-carboxamide]: the IC50 is 1.48e+06 pM.

Take `C[S+](=O)([O-])[C@H]1CC[C@@H](n2ncc(C(=O)N(CC(=O)c3c(Cl)cncc3Cl)Cc3ccc(F)cc3)c2C(F)(F)F)CC1` [Example 86, N-(2-(3,5-dichloropyridin-4-yl)-2-oxoethyl)-N-(4-fluorobenzyl)-1-(cis-4-(methylsulfonyl)cyclohexyl)-5-(trifluoromethyl)-1H-pyrazole-4-carboxamide]: the IC50 was 162000 pM. Turning to `C[S+](=O)([O-])[C@H]1CC[C@H](n2ncc(C(=O)N(CC(=O)c3c(Cl)cncc3Cl)Cc3ccc(F)cc3)c2C(F)(F)F)CC1` [Example 87, N-(2-(3,5-dichloropyridin-4-yl)-2-oxoethyl)-N-(4-fluorobenzyl)-1-(trans-4-(methylsulfonyl)cyclohexyl)-5-(trifluoromethyl)-1H-pyrazole-4-carboxamide], the IC50 is 141000 pM. As to `NC(=O)[C@H]1CC[C@H](n2ncc(C(=O)N(CC(=O)c3c(Cl)cncc3Cl)Cc3ccc(F)cc3)c2C(F)(F)F)CC1` [Example 88, l-(trans-4-carbamoylcyclohexyl)-N-(2-(3,5-dichloropyridin-4-yl)-2-oxoethyl)-N-(4-fluorobenzyl)-5-(trifluoromethyl)-1H-pyrazole-4-carboxamide], the IC50 was 87100 pM. In the case of `O=C(CN(Cc1ccc(F)cc1)C(=O)c1cnn([C@H]2CC[C@H](C(=O)NCCO)CC2)c1C(F)(F)F)c1c(Cl)cncc1Cl` [Example 89, N-(2-(3,5-dichloropyridin-4-yl)-2-oxoethyl)-N-(4-fluorobenzyl)-1-(trans-4-((2-hydroxyethyl)carbamoyl)cyclohexyl)-5-(trifluoromethyl)-1H-pyrazole-4-carboxamide], the IC50 was 1.38e+06 pM.

Consider `O=C(c1cnn([C@H]2CC[C@H](C(=O)O)CC2)c1C(F)(F)F)N(Cc1ccc(F)cc1)CC(O)c1c(Cl)cncc1Cl` (stereo partly drawn) [Example 90, trans-4-(4-((2-(3,5-dichloropyridin-4-yl)-2-hydroxyethyl)(4-fluorobenzyl)carbamoyl)-5-(trifluoromethyl)-1H-pyrazol-1-yl)cyclohexanecarboxylic acid], for which the IC50 was 501000 pM. Turning to `O=C(c1cnn([C@H]2CC[C@H](C(=O)O)CC2)c1C(F)(F)F)N(Cc1ccc(F)cc1)CC(F)c1c(Cl)cccc1Cl` (stereo partly drawn) [Example 91, trans-4-(4-((2-(2,6-dichlorophenyl)-2-fluoroethyl)(4-fluorobenzyl)carbamoyl) (trifluoromethyl)-1H-pyrazol-1-yl)cyclohexanecarboxylic acid], the IC50 was 4370 pM. In the case of `O=C(CN(Cc1ccc(F)cc1)C(=O)c1cnn([C@H]2CC[C@H](C(=O)O)C2)c1C(F)(F)F)c1c(Cl)cncc1Cl` [Example 92, (1S,3S)-3-(4-((2-(3,5-dichloropyridin-4-yl)-2-oxoethyl)-((4-fluorophenyl)methyl)carbamoyl)-5-(trifluoromethyl)pyrazol-1-yl)cyclopentane-1-carboxylic acid], the IC50 is 155000 pM. `CC(C)(C)CN(CC(=O)c1c(Cl)cc(F)cc1Cl)C(=O)c1cnn([C@H]2CC[C@](C)(C(=O)O)CC2)c1C(F)(F)F` [Example 94, trans-4-(4-((2-(2,6-dichloro-4-fluorophenyl)-2-oxoethyl)-(2,2-dimethylpropyl)carbamoyl)-5-(trifluoromethyl)pyrazol-1-yl)-1-methylcyclohexane-1-carboxylic acid]: the IC50 was 8320 pM.

For `CC(C)(C)OCCN(CC(=O)c1c(Cl)cncc1Cl)C(=O)c1cnn([C@H]2CC[C@H](C(=O)O)CC2)c1C(F)(F)F` [Example 95, trans-(4((2-(3,5-dichloropyridin-4-yl)-2-oxoethyl)-(2-((2-methylpropan-2-yl)oxy)ethyl)carbamoyl)-5-(trifluoromethyl)pyrazol-1-yl)cyclohexane-1-carboxylic acid], the IC50 is 151000 pM. Turning to `O=C(c1cnn([C@H]2CC[C@H](C(=O)O)CC2)c1C(F)(F)F)N(Cc1ccc(F)cc1)CC(F)(F)c1c(Cl)cccc1Cl` [Example 96, trans-4-(4-((2-(2,6-dichlorophenyl)-2,2-difluoroethyl)-((4-fluorophenyl)methyl)carbamoyl)-5-(trifluoromethyl)pyrazol-1-yl)cyclohexane-1-carboxylic acid], the IC50 is 28800 pM. For `NC(=O)c1cc(Cl)c(C(=O)CN(Cc2cc(F)cc(F)c2)C(=O)c2cnn([C@H]3CC[C@H](C(=O)O)CC3)c2C(F)(F)F)c(Cl)c1` [Example 97, trans-4-(4-((2-(4-carbamoyl-2,6-dichlorophenyl)-2-oxoethyl)-((3,5 difluorophenyl)methyl)carbamoyl)-5-(trifluoromethyl)pyrazol-1-yl)cyclohexane-1-carboxylic acid], the IC50 is 282000 pM.

For the compound `O=C(O)c1cc(Cl)c(C(=O)CN(Cc2cc(F)cc(F)c2)C(=O)c2cnn([C@H]3CC[C@H](C(=O)O)CC3)c2C(F)(F)F)c(Cl)c1` [Example 98, trans-4-(2-((1-(4-carboxycyclohexyl)-5-(trifluoromethyl)pyrazole-4-carbonyl)-((3,5-difluorophenyl)methyl)amino)acetyl)-3,5-dichlorobenzoic acid], the IC50 was more than 1e+07 pM. Regarding `O=C(CN(Cc1cc(F)cc(F)c1)C(=O)c1cnn([C@H]2CC[C@H](C(=O)O)CC2)c1C(F)(F)F)c1ccccc1Cl` [Example 99, trans-4-(4-((2-(2-chlorophenyl)-2-oxoethyl)-((3,5-difluorophenyl)methyl)carbamoyl)-5-(trifluoromethyl)pyrazol-1-yl)cyclohexane-1-carboxylic acid], the IC50 was 105000 pM. With `CC(CN(Cc1ccc(F)cc1)C(=O)c1cnn([C@H]2CC[C@H](C(=O)O)CC2)c1C(F)(F)F)c1c(Cl)cccc1Cl` (stereo partly drawn) [Example 100, trans-4-(4-(2-(2,6-dichlorophenyl)propyl-((4-fluorophenyl)methyl)carbamoyl)-5-(trifluoromethyl)pyrazol-1-yl)cyclohexane-1-carboxylic acid], the IC50 was 234000 pM.
